Experiments:
[1] = tested on: TNFα; test: LPS mouse assay, serum TNFα by ELISA; type: in vivo, Balb C ByJ mice; details: i.p. or oral 30 minutes before 1 mg/kg LPS i.p., serum 2 hours after LPS
Description: (§1) 7 week old Balb C ByJ mice (24-28 g) were administered, either by i.p. (5 ml/kg) or oral (10 ml/kg) administration, with vehicle or test article. 30 minutes later these animals were challenged with an intraperitoneal injection of 1 mg/kg LPS. 2 hours after LPS challenge blood samples were collected under light isoflurane anaesthesia into normal tubes by retro-orbital puncture. Samples were allowed to clot at room temperature and then spun at 6000 g for 3 min at 4° C. Serum was stored at −20° C. until use. Serum TNFα and IL-10 levels were analysed in duplicate by ELISA technique.

[2] = tested on: IL-10; test: LPS mouse assay, serum IL-10 by ELISA; type: in vivo, Balb C ByJ mice; details: i.p. or oral 30 minutes before 1 mg/kg LPS i.p., serum 2 hours after LPS
Description: as §1

[3] = tested on: male Wistar rats; test: Carrageenan paw assay; type: in vivo; details: rat
Description: Fasted (18 hour) male Wistar rats (105-130 g) were weighed and a basal mercury plethysmometer reading was taken of the right hind paw by submerging the paw in the mercury up to the tibiotarsal joint. Subsequently, vehicles, reference items and test articles were administered by oral gavage (10 ml/kg). Half an hour after treatment, 0.1 ml of 2% carrageenan in 0.9% saline was injected into the subplanatar area of the right hind paw. The right paw was measured again with the plethysmometer at 1, 2, 3, 4 and 5 hours after carrageenan administration.

## CC(C)(CO)NCC(O)c1cc(Cl)c(N)c(Cl)c1 (racemic) [Example 1, 2-[2-(4-amino-3,5-dichlorophenyl)-2-hydroxyethylamino]-2-methylpropan-1-ol]
[1]; 10 mg/kg
  inhibition of TNFα production: 60%
[1]; 30 mg/kg
  inhibition of TNFα production: 61%
[2]; 10 mg/kg
  IL-10 production potentiated: 417%
[2]; 30 mg/kg
  IL-10 production potentiated: 392%

## CC(C)(CO)NCC(O)c1cc(Cl)c(N)c(Cl)c1 (single isomer, unassigned) [2-[2-(4-amino-3,5-dichlorophenyl)-2-hydroxyethylamino]-2-methylpropan-1-ol]
[3]; 0.3 mg/kg oral gavage
  inhibition in the carageenan paw assay: 18%
[3]; 1 mg/kg oral gavage
  inhibition in the carageenan paw assay: 28%
[3]; 3 mg/kg oral gavage
  inhibition in the carageenan paw assay: 26%
[3]; 10 mg/kg oral gavage
  inhibition in the carageenan paw assay: 59%
[3]; 30 mg/kg oral gavage
  inhibition in the carageenan paw assay: 71%
[3]; 0.3 to 30 mg/kg oral gavage
  anti-inflammatory dose response in the carageenan paw assay: clear anti-inflammatory dose response curve

## CC(C)(CO)NCC(O)c1ccccc1 (stereo not shown) [Example 2, 2-(2-phenyl-2-hydroxyethylamino)-2-methyl-propan-1-ol]
[1]; 10 mg/kg
  inhibition of TNFα production: 47%
[1]; 30 mg/kg
  inhibition of TNFα production: 58%
[2]; 10 mg/kg
  IL-10 production potentiated: 345%
[2]; 30 mg/kg
  IL-10 production potentiated: 366%

## CC(C)(CO)NCC(O)c1ccc(F)cc1 (stereo not shown) [Example 3, 2-[2-(4-fluorophenyl)-2-hydroxyethylamino]-2-methylpropan-1-ol]
[1]; 10 mg/kg
  inhibition of TNFα production: 37%
[1]; 30 mg/kg
  inhibition of TNFα production: 37%
[2]; 10 mg/kg
  IL-10 production potentiated: 106%
[2]; 30 mg/kg
  IL-10 production potentiated: 125%

## CC(C)Cc1ccc(C(C)C(=O)O)cc1 (stereo not shown) [Ibuprofen, reference compound]
[3]; 100 mg/kg oral gavage
  anti-inflammatory in the carageenan paw assay: 38%

Reference: US20080306162A1, “Treatment of Inflammatory Disorders and Pain” (priority 2005, published 2008)
